How the values were obtained:
[1] = xn = mol fraction of the nth substance listed; settings: 100 kPa, Liquid; for viscosity: Capillary tube (Ostwald / Ubbelohde) method; for mass density: Vibrating tube method
[2] = refractive index (Na D-line) (dimensionless); xn = mol fraction of the nth substance listed; settings: Liquid, Standard Abbe refractometry

C1CC[C@H]2CCCC[C@@H]2C1 [trans-decahydronaphthalene] + CCCCCCCCCC
[1]
Settings | mass density [kg/m3] | viscosity [mPa·s]
293.15 K, x1 = 0.1035 | 743.5 | 0.98
293.15 K, x1 = 0.2016 | 755.54 | 1.035
293.15 K, x1 = 0.3001 | 768 | 1.099
293.15 K, x1 = 0.3994 | 781.01 | 1.175
293.15 K, x1 = 0.5036 | 795.1 | 1.272
293.15 K, x1 = 0.6062 | 809.53 | 1.388
293.15 K, x1 = 0.6989 | 822.98 | 1.514
293.15 K, x1 = 0.7891 | 836.46 | 1.649
293.15 K, x1 = 0.8949 | 852.8 | 1.848
293.15 K, x1 = 1 | 869.78 | 2.112
298.15 K, x1 = 0.1035 | 739.74 | 0.91
298.15 K, x1 = 0.2016 | 751.79 | 0.958
298.15 K, x1 = 0.3001 | 764.27 | 1.019
298.15 K, x1 = 0.3994 | 777.28 | 1.087
298.15 K, x1 = 0.5036 | 791.38 | 1.174
298.15 K, x1 = 0.6062 | 805.81 | 1.28
298.15 K, x1 = 0.6989 | 819.26 | 1.394
298.15 K, x1 = 0.7891 | 832.75 | 1.514
298.15 K, x1 = 0.8949 | 849.09 | 1.694
298.15 K, x1 = 1 | 866.07 | 1.925
303.15 K, x1 = 0.1035 | 735.97 | 0.848
303.15 K, x1 = 0.2016 | 748.02 | 0.89
303.15 K, x1 = 0.3001 | 760.51 | 0.946
303.15 K, x1 = 0.3994 | 773.52 | 1.01
303.15 K, x1 = 0.5036 | 787.63 | 1.09
303.15 K, x1 = 0.6062 | 802.07 | 1.185
303.15 K, x1 = 0.6989 | 815.53 | 1.285
303.15 K, x1 = 0.7891 | 829.02 | 1.396
303.15 K, x1 = 0.8949 | 845.37 | 1.555
303.15 K, x1 = 1 | 862.34 | 1.769
308.15 K, x1 = 0.1035 | 732.17 | 0.794
308.15 K, x1 = 0.2016 | 744.24 | 0.834
308.15 K, x1 = 0.3001 | 756.74 | 0.884
308.15 K, x1 = 0.3994 | 769.76 | 0.941
308.15 K, x1 = 0.5036 | 783.88 | 1.013
308.15 K, x1 = 0.6062 | 798.32 | 1.101
308.15 K, x1 = 0.6989 | 811.79 | 1.197
308.15 K, x1 = 0.7891 | 825.29 | 1.293
308.15 K, x1 = 0.8949 | 841.64 | 1.436
308.15 K, x1 = 1 | 858.61 | 1.628
313.15 K, x1 = 0.1035 | 728.37 | 0.744
313.15 K, x1 = 0.2016 | 740.45 | 0.778
313.15 K, x1 = 0.3001 | 752.95 | 0.828
313.15 K, x1 = 0.3994 | 765.99 | 0.881
313.15 K, x1 = 0.5036 | 780.11 | 0.947
313.15 K, x1 = 0.6062 | 794.56 | 1.024
313.15 K, x1 = 0.6989 | 808.04 | 1.113
313.15 K, x1 = 0.7891 | 821.54 | 1.201
313.15 K, x1 = 0.8949 | 837.9 | 1.33
313.15 K, x1 = 1 | 854.88 | 1.505
318.15 K, x1 = 0.1035 | 724.55 | 0.702
318.15 K, x1 = 0.2016 | 736.64 | 0.734
318.15 K, x1 = 0.3001 | 749.16 | 0.777
318.15 K, x1 = 0.3994 | 762.2 | 0.826
318.15 K, x1 = 0.5036 | 776.34 | 0.887
318.15 K, x1 = 0.6062 | 790.8 | 0.959
318.15 K, x1 = 0.6989 | 804.28 | 1.032
318.15 K, x1 = 0.7891 | 817.79 | 1.119
318.15 K, x1 = 0.8949 | 834.16 | 1.237
318.15 K, x1 = 1 | 851.14 | 1.394
323.15 K, x1 = 0.1035 | 720.72 | 0.662
323.15 K, x1 = 0.2016 | 732.82 | 0.696
323.15 K, x1 = 0.3001 | 745.35 | 0.732
323.15 K, x1 = 0.3994 | 758.4 | 0.777
323.15 K, x1 = 0.5036 | 772.55 | 0.834
323.15 K, x1 = 0.6062 | 787.02 | 0.896
323.15 K, x1 = 0.6989 | 800.51 | 0.966
323.15 K, x1 = 0.7891 | 814.04 | 1.046
323.15 K, x1 = 0.8949 | 830.41 | 1.154
323.15 K, x1 = 1 | 847.4 | 1.295

refractive index, [2], 101 kPa
Settings | x1 = 0.1035 | x1 = 0.2016 | x1 = 0.3001 | x1 = 0.3994 | x1 = 0.5036 | x1 = 0.6062 | x1 = 0.6989 | x1 = 0.7891 | x1 = 0.8949 | x1 = 1
298.15 K | 1.4144 | 1.4192 | 1.4243 | 1.4301 | 1.4355 | 1.4414 | 1.4471 | 1.4524 | 1.4592 | 1.4662
308.15 K | 1.4099 | 1.4153 | 1.4204 | 1.4256 | 1.4317 | 1.4371 | 1.4431 | 1.4484 | 1.4553 | 1.4618
318.15 K | 1.4055 | 1.4112 | 1.4162 | 1.4211 | 1.4271 | 1.4336 | 1.4389 | 1.4448 | 1.4518 | 1.4581

C1CC[C@H]2CCCC[C@@H]2C1 [trans-decahydronaphthalene] + CCCCCCCCCCC
[1]
Settings | mass density [kg/m3] | viscosity [mPa·s]
293.15 K, x1 = 0.1041 | 751.02 | 1.214
293.15 K, x1 = 0.2052 | 761.89 | 1.258
293.15 K, x1 = 0.3027 | 772.86 | 1.315
293.15 K, x1 = 0.3999 | 784.34 | 1.369
293.15 K, x1 = 0.4997 | 796.76 | 1.444
293.15 K, x1 = 0.5991 | 809.74 | 1.529
293.15 K, x1 = 0.6991 | 823.47 | 1.625
293.15 K, x1 = 0.8019 | 838.4 | 1.752
293.15 K, x1 = 0.8992 | 853.35 | 1.899
293.15 K, x1 = 1 | 869.78 | 2.112
298.15 K, x1 = 0.1041 | 747.37 | 1.12
298.15 K, x1 = 0.2052 | 758.22 | 1.159
298.15 K, x1 = 0.3027 | 769.19 | 1.212
298.15 K, x1 = 0.3999 | 780.66 | 1.26
298.15 K, x1 = 0.4997 | 793.09 | 1.326
298.15 K, x1 = 0.5991 | 806.06 | 1.406
298.15 K, x1 = 0.6991 | 819.79 | 1.492
298.15 K, x1 = 0.8019 | 834.72 | 1.606
298.15 K, x1 = 0.8992 | 849.65 | 1.741
298.15 K, x1 = 1 | 866.07 | 1.925
303.15 K, x1 = 0.1041 | 743.67 | 1.037
303.15 K, x1 = 0.2052 | 754.53 | 1.073
303.15 K, x1 = 0.3027 | 765.5 | 1.121
303.15 K, x1 = 0.3999 | 776.97 | 1.165
303.15 K, x1 = 0.4997 | 789.4 | 1.222
303.15 K, x1 = 0.5991 | 802.37 | 1.296
303.15 K, x1 = 0.6991 | 816.09 | 1.376
303.15 K, x1 = 0.8019 | 831.02 | 1.478
303.15 K, x1 = 0.8992 | 845.94 | 1.597
303.15 K, x1 = 1 | 862.34 | 1.769
308.15 K, x1 = 0.1041 | 739.97 | 0.965
308.15 K, x1 = 0.2052 | 750.83 | 0.996
308.15 K, x1 = 0.3027 | 761.8 | 1.041
308.15 K, x1 = 0.3999 | 773.28 | 1.081
308.15 K, x1 = 0.4997 | 785.7 | 1.136
308.15 K, x1 = 0.5991 | 798.67 | 1.201
308.15 K, x1 = 0.6991 | 812.39 | 1.274
308.15 K, x1 = 0.8019 | 827.31 | 1.366
308.15 K, x1 = 0.8992 | 842.22 | 1.473
308.15 K, x1 = 1 | 858.61 | 1.628
313.15 K, x1 = 0.1041 | 736.25 | 0.9
313.15 K, x1 = 0.2052 | 747.11 | 0.929
313.15 K, x1 = 0.3027 | 758.09 | 0.972
313.15 K, x1 = 0.3999 | 769.57 | 1.006
313.15 K, x1 = 0.4997 | 781.99 | 1.058
313.15 K, x1 = 0.5991 | 794.96 | 1.117
313.15 K, x1 = 0.6991 | 808.67 | 1.182
313.15 K, x1 = 0.8019 | 823.59 | 1.267
313.15 K, x1 = 0.8992 | 838.5 | 1.364
313.15 K, x1 = 1 | 854.88 | 1.505
318.15 K, x1 = 0.1041 | 732.53 | 0.842
318.15 K, x1 = 0.2052 | 743.39 | 0.869
318.15 K, x1 = 0.3027 | 754.37 | 0.908
318.15 K, x1 = 0.3999 | 765.85 | 0.94
318.15 K, x1 = 0.4997 | 778.27 | 0.988
318.15 K, x1 = 0.5991 | 791.24 | 1.042
318.15 K, x1 = 0.6991 | 804.95 | 1.101
318.15 K, x1 = 0.8019 | 819.87 | 1.18
318.15 K, x1 = 0.8992 | 834.77 | 1.267
318.15 K, x1 = 1 | 851.14 | 1.394
323.15 K, x1 = 0.1041 | 728.79 | 0.789
323.15 K, x1 = 0.2052 | 739.66 | 0.815
323.15 K, x1 = 0.3027 | 750.64 | 0.852
323.15 K, x1 = 0.3999 | 762.12 | 0.881
323.15 K, x1 = 0.4997 | 774.54 | 0.924
323.15 K, x1 = 0.5991 | 787.51 | 0.975
323.15 K, x1 = 0.6991 | 801.22 | 1.028
323.15 K, x1 = 0.8019 | 816.14 | 1.1
323.15 K, x1 = 0.8992 | 831.03 | 1.18
323.15 K, x1 = 1 | 847.4 | 1.295

refractive index, [2], 100 kPa
Settings | x1 = 0.1041 | x1 = 0.2052 | x1 = 0.3027 | x1 = 0.3999 | x1 = 0.4997 | x1 = 0.5991 | x1 = 0.6991 | x1 = 0.8019 | x1 = 0.8992 | x1 = 1
298.15 K | 1.4188 | 1.423 | 1.4272 | 1.4319 | 1.4367 | 1.4421 | 1.4476 | 1.4535 | 1.4594 | 1.4662
308.15 K | 1.4143 | 1.419 | 1.4232 | 1.428 | 1.4331 | 1.4378 | 1.4434 | 1.4496 | 1.4559 | 1.4618
318.15 K | 1.4099 | 1.4146 | 1.4191 | 1.4236 | 1.4281 | 1.4332 | 1.439 | 1.4452 | 1.4515 | 1.4581

Source: the NIST ThermoML archive (doi:10.1021/je400250u)
